Results: patent publication US8722623B2, “Compositions and methods utilizing fibrin beta chain fragments” (University of Maryland, Baltimore, priority 2007, dated 2014)
“Also recorded” adds a separate entry of the source. No end group written: not given here.

Experiments:
VE-cadherin [1] = assay: Surface plasmon resonance binding of peptides to immobilized VE-cadherin fragment; conditions: for affinity to VE-cadherin (in words): comparison between peptides; for binding to VE-cadherin: added at 400 nM
Method: To test binding activities of fibrin beta chain derived peptides of the invention to VE-caherin, surface plasmon resonance (SPR) methods are, for example, used. SPR experiments are performed using, for example, a BIAcore 3000 biosensor (BIAcore AB, Uppsala, Sweden), which can be used to measure the association/dissociation of peptides or proteins in real-time (see, for example, Karlsson, R., and Falt, A. J. Immunol. Methods (1997) 200, 121-133; Hall, D. Anal. Biochem. (2001) 288, 109-125; see also Gorlatov et al. Biochemistry (2002) 41, 4107-4116 for other VE-cadherin binding assays including, for example, SPR IAsys Analysis based assays and ELISA based assays). An exemplary method is described in the following passage. VE-cadherin fragment is covalently coupled via epsilon-amino groups to the activated surface of a CM5 biosensor chip by the procedure described by, for example, Karlsson, R., and Falt, A. (J. Immunol. Methods (1997) 200, 121-133; see also Gorlatov et al. Biochemistry (2002) 41, 4107-4116). Briefly, the carboxyl groups on the sensor surface were activated with an injection of a solution containing, for example, 0.2 M N-ethyl-N-(3-diethylamino-propyl) carbodiimide and 0.05 M N-hydroxysuccinimide. VE-cadherin to be coupled is prepared in 10 mM sodium-acetate buffer, pH 4.0, containing 1 mM CaCl2, and injected onto the activated CM5 surface at 5 mL/min followed by incubation for 7 min after which the surface was deactivated by passing 1 M ethanolamine. Activation time, ligand concentration, and contact time are adjusted to achieve a coupling density of 5-6 ng/mm2. Binding experiments are performed, for example, in 10 mM Hepes buffer, pH 7.4, containing 200 mM NaCl, 1 mM CaCl2, 0.02% NaN3, and 0.05% n-octyl beta-D-glucopyranoside (binding buffer). Samples comprising, for example, fibrin beta chain derived peptides β15-42, β15-64, and (β15-66)2, at different concentrations are injected in duplicate in at least three separate experiments and the association/dissociation between the immobilized and the added peptides is monitored as the change in the SPR response. To regenerate the chip, complete dissociation of the complex was achieved by adding, for example, 20 mM Tris buffer, pH 7.5, containing 0.5 M urea, 0.5 M NaCl, and 0.5% Triton X-100, for 1 min following reequilibration with binding buffer. Experimental data are analyzed using, for example, BIAevaluation 3.0 software supplied with the instrument. Briefly, kinetic constants, kass and kdis, are estimated by global analysis of the association/dissociation curves to the 1:1 Langmurian interaction model (Morton, T. A., and Myszka, D. G. Methods Enzymol. (1998) 295, 268-294). The dissociation equilibrium constant (Kd) is calculated as Kd=kdiss/kass. It is also noted that other methods known to one of ordinary skill in the art can be used to determine binding activities of fibrin beta chain derived peptides of the invention to VE-caherin including, for example, ELISA-based methods (see, for example, Gorlatov et al. Biochemistry (2002) 41, 4107-4116).

[2] = system: leukocyte (neutrophil) migration into the peritoneum; assay: Thioglycollate-induced in vivo peritonitis model of leukocyte migration; design: species or system mouse; conditions: for inhibition of leukocyte infiltration and migration compared to β15-42: (β15-66)2 8.6 mg/kg, (β15-44)2 5.1 mg/kg; for leukocyte migration / number of leukocytes accumulating in the peritoneum: peptide i.v. prior to i.p. thioglycollate, peritoneal lavage at 4 h, versus PBS control
Method: We compared their anti-inflammatory effects in an in vivo peritonitis model, a well established mouse model for leukocyte migration into sites of acute inflammation. In this model, leukocyte migration from the circulation into the peritoneum was stimulated by intraperitoneal (i.p.) injection of thioglycollate, and leukocyte (neutrophil) accumulation was evaluated after 4 hours by measuring the cell number in the peritoneal lavage.
Leukocyte (e.g., neutrophil) infiltration is a hallmark of injury associated with ischemia and reperfusion, as well as a number of other inflammatory conditions. Therefore, peptides of the invention are tested to determine the ability to decrease leukocyte infiltration in vivo. The ability to inhibit leukocyte infiltration was tested in an in vivo model of peritonitis, which is a well established mouse model for leukocyte infiltration and migration into sites of inflammation. The protocol for this animal model is described as below. Experiments were performed consistent with accepted practice (see, for example, Bosse et al. 1994. Eur. J. Immunol. 24: 3019; Borges et al. 1997. Blood 90: 1934; US Patent Application Publication No. 20030105020). To induce peritonitis, thioglycollate was administered intraperitoneally (i.p.) to mice. For inhibition studies, mice were injected intravenously (i.v.) with either β15-42, (β15-44)2, or (β15-66)2 prior to i.p. injection of thioglycollate (FIG. 4). Control mice were treated with the same volume of PBS. All reagents are kept endotoxin-free. At 4 h after injection of thioglycollate, mice were sacrificed and the peritoneal lavage was generated by, for example, injecting 10 ml PBS, massaging the peritoneal wall, and removing the fluid. Following the peritoneal lavage, leukocytes were quantified (e.g., neutrophil quantification determined using a hemocytometer).

ischemic myocardium = assay: Coronary artery ligation mouse model of myocardial infarction (ischemia and reperfusion); assay type: in vivo; conditions: MI mice, i.v., about 16 nanomoles
From the text: To confirm the ability of (β15-66)2, (β15-44)2, (β15-40)2, (β15-35)2, and β15-42 to protect (with the former peptides showing increased protection over β15-42) against injury following ischemia and reperfusion an animal model of myocardial infarction (MI) is employed. The effect of the β15-42, (β15-66)2, (β15-44)2, (β15-40)2, and (β15-35)2 (and other fibrin beta chain derived peptides of the invention) on the protection and infiltration and migration of leukocytes into the ischemic myocardium is determined by, for example, using a coronary artery ligation mouse model of MI. To determine the efficacy of these peptides to protect against injury and inhibit leukocyte infiltration and migration into the myocardium following ischemia a fibrin beta chain derived peptide is administered (for example, at a dose of about 16 nanomoles, which can be adjusted accordingly to determine efficacy) i.v. into 8-12 week-old C57BL6 mice (20 to 25 g), for example, prior to left anterior descending (LAD) coronary artery ligation, upon reperfusion, or after reperfusion. Mice injected with PBS are used as controls. […] Administration can be adjusted based on, for example, pharmacodynamic and pharmacokinetic properties.
The study may comprise at least 7 different groups: sham-operated control (group #1), MI mice with no treatment (group #2), and MI mice treated with β15-42 (group #3), (β15-66)2 (group #4), (β15-44)2 (group #5), (β15-40)2 (group #6), and (β15-35)2 (group #7). To ensure objectivity, these experiments are conducted in a double-blind and placebo-controlled manner. Thus, β15-42, (β15-66)2, (β15-44)2, (β15-40)2, (β15-35)2, and PBS are assigned randomly to a reference number, which is blinded to the personnel involved in conducting the surgery and performing post-surgery analysis. […] Leukocyte infiltration into the ischemic myocardium is determined by H&E staining and cardiomyocyte apoptosis is determined by TdT-mediated dUTP Nick-End Labeling (TUNEL) staining. […]

VE-cadherin [3] = biological target: T1, VE-cadherin (Homo sapiens, UniProt P33151); conditions: cited from earlier work
T1 sequence (P33151 48-784): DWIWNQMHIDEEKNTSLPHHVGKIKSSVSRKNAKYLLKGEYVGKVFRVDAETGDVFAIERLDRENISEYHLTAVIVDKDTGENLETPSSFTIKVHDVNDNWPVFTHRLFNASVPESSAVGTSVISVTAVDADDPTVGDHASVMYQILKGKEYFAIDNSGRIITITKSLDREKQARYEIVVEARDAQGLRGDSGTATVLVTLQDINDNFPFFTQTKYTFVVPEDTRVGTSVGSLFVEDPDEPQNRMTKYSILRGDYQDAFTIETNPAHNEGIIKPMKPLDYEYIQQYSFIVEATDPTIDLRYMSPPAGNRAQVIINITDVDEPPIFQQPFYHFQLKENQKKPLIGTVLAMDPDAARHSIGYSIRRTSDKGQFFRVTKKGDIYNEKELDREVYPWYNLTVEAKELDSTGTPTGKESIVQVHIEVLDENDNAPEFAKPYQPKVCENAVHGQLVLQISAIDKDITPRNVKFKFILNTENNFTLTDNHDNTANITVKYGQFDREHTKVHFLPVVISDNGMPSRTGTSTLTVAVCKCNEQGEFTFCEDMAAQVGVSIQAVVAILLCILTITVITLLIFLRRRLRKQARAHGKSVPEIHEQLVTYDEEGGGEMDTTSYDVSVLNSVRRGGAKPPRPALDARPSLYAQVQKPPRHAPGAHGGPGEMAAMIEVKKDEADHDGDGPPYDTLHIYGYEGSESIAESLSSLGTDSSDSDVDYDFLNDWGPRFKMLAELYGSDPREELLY

[4] = system: myocardial ischemia-reperfusion injury; conditions: acute or chronic rat models; cited from earlier work

(β15-35)2: dimer; monomer GHRPLDKKREEAPSLRPAYCG (SEQ ID NO:7) (GHRPLDKKREEAPSLRPAYCG; also: disulfide-linked homodimer)
affinity to VE-cadherin compared to both (β15-44)2 and (β15-40)2 (VE-cadherin [1]; FIG. 3): unexpectedly higher degree of affinity
affinity to VE-cadherin (in words) (VE-cadherin [1]): even higher affinity
inhibition of leukocyte infiltration and migration compared to β15-42 ([2]; peritonitis model, 4 h): even further inhibit leukocyte infiltration and migration
efficacy compared to β15-42 (ischemic myocardium): increased efficacy

(β15-40)2: dimer; monomer GHRPLDKKREEAPSLRPAPPPISYCG (SEQ ID NO:6) (GHRPLDKKREEAPSLRPAPPPISYCG; also: disulfide-linked homodimer)
affinity to VE-cadherin (in words) (VE-cadherin [1]): even higher affinity
inhibition of leukocyte infiltration and migration compared to β15-42 ([2]; peritonitis model, 4 h): even further inhibit leukocyte infiltration and migration
efficacy compared to β15-42 (ischemic myocardium): increased efficacy

(β15-44)2: synthetic dimer; monomer GHRPLDKKREEAPSLRPAPPPISGGGYRCG (SEQ ID NO:5), Cys43-Cys43 disulfide bond (GHRPLDKKREEAPSLRPAPPPISGGGYRCG; also: Cys43-Cys43 disulfide homodimer)
affinity to VE-cadherin (in words) (VE-cadherin [1]): comparable to that of (β15-66)2; also recorded: even higher affinity
leukocyte migration / number of leukocytes accumulating in the peritoneum [2]: inhibits leukocyte migration
number of leukocytes compared to β15-44 ([2]; peritonitis model, 4 h): decrease in the number of leukocytes
inhibition of leukocyte infiltration and migration compared to β15-42 ([2]; peritonitis model, 4 h): almost twice as much
inhibitory effect on leukocyte transmigration compared to (β15-66)2 ([2]; peritonitis model, FIG. 4): superior
efficacy compared to β15-42 (ischemic myocardium): increased efficacy

thymosin β4 (SDKPDMAEIEKFDKSKLKKTETQEKNPLPSKETIEQEKQAGES; Thymosin beta-4; UniProt P62328 2-44, looked up) [TB4]
leukocyte migration / number of leukocytes accumulating in the peritoneum [2]: inhibits leukocyte migration

β15-42: peptide which includes amino acid residues 15-42 of the fibrin β chain (GHRPLDKKREEAPSLRPAPPPISGGGYR) [reference compound]
binding to VE-cadherin (VE-cadherin [1]): very little binding
affinity to VE-cadherin (in words) (VE-cadherin [1]): weak
leukocyte migration / number of leukocytes accumulating in the peritoneum [2]: significantly lower; also recorded: inhibits leukocyte migration
competition with fibrin for the interaction with VE-cadherin (VE-cadherin [3]): competes with fibrin for the interaction with VE-cadherin
myocardial inflammation and infarct size [4]: substantially reduced

β15-64: monomeric fibrin β chain residues 15-64 (fibrin βN-domain) [reference compound]
binding to VE-cadherin (VE-cadherin [1]): very little binding
